{"source": "patent US20150337351A1", "about": "“METHODS OF MICROORGANISM IMMOBILIZATION” (priority 2014, published 2015)", "key": {"E. coli 25922 (Ecol)": {"tested_on": "E. coli 25922 (Ecol)", "test": "Plate-based disk diffusion tests, sensitive strain", "format": "cell-based, Escherichia coli", "settings": "blood agar lawn plates, antibiotic disk, overnight at 35° C.", "description": "(§1) Several nutrient agar plating methods employing antibiotics, other chemicals, and one or more species of bacteria have been devised to study these mechanisms. The most basic of these tests, the disk-diffusion method, employs a single test strain of bacteria which is used to create a uniform layer or lawn when grown. A disk-containing antibiotic is placed on the inoculated plate and the plate is then incubated to grow the lawn. In cases where the strain is sensitive to the antibiotic, a zone of no growth is observed around the disk. The distance from the disk to the edge of this zone is an indicator of the level of resistance to the antibiotic present in the disk, based on how far the antibiotic can diffuse into the nutrient medium. A variation on this test is to employ a second disk or drop of fluid near the antibiotic disk that contains a chemical that can affect the antibiotic response. Differences between the zone in areas near the chemical and away from the chemical can indicate the type of resistance mechanism at work in the test. In this case, the chelating agent ethylenediamine tetraacetic acid (EDTA) (Sigma-Aldrich) can be used to test for the presence of a class of antibiotic resistance enzyme called metallo-beta-lactamase, which is inhibited by EDTA. The positive result for this test is a larger zone of inhibition near the EDTA indicating reduced effectiveness of the enzyme. […]"}, "[1]": {"tested_on": "P. aeruginosa 519749 (Paer)", "test": "Plate-based disk diffusion tests, resistant strain", "format": "cell-based, Pseudomonas aeruginosa", "settings": "blood agar lawn plates, antibiotic disk, overnight at 35° C.", "description": "as §1"}, "[2]": {"tested_on": "Pseudomonas aeruginosa IHMA 519749 (Paer)", "test": "Biosensor mixed species diffusion assay (immobilized cells, microscopic detection), growth of resistant strain", "format": "cell-based", "settings": "for Paer growth?: CAZ 16 (16 μg/mL), MHA 0.850% agar, 4 hours", "description": "(§2) A mixed species diffusion variation of Hodge test using a biosensor with immobilized cells and microscopic detection was performed using the same bacterial strains. Heavy suspensions of Ecol and Paer were prepared in L-histidine buffer from fresh overnight blood agar plates. Heavy suspensions were diluted in normal saline to produce 0.5 McFarland suspensions, noting the volumes of each suspension required and using the same volumes to produce 10^8 cfu/mL suspensions of each strain in L-histidine. These suspensions were further diluted to create […] and 2×10^5 cfu/mL suspensions for heavy and moderate density working samples. The working samples were then diluted 1:1 in 2 mM L-DOPA for EKC.\n(§3) The strains were next introduced to a biosensor for EKC, immobilization, and detection. Paer suspensions were loaded first, placing 5 uL in the exit port side (to maintain the resistant Paer isolate in one half of each channel) of each biosensor flowcell channel to cover one half of the flowcell. Six flowcells were loaded with each concentration. EKC was performed for 5 minutes at 1.5V, and then all flowcells were washed with two aliquots of 160 μL 1 mM L-DOPA (from the entry port). Ecol suspensions were next loaded, introducing 20 μL of cells suspension from the entry port to cover the full flowcell. Six flowcells were loaded with each concentration. EKC was performed for 5 minutes at 1.5V, and all flowcells washed with 160 μL of 1/10 MHB. The manner in which the cells were introduced and captures created a site comprising Ecol cells that were distal from any Paer cells (i.e., on the entry port side of the flowcell), as well as Ecol cells that were proximal to the Paer cells (i.e., on the exit port side of the flowcell).\n(§4) Antibiotic media were prepared for immobilization and inhibition testing as follows. […] An immobilization medium source plate was prepared in the detection system and maintained at 45° C. The source plate wells were loaded with 20 μL of the 10× stocks and MHB without antibiotic for growth controls. The sample cassette was placed in the detection system and maintained at 40° C. A 180 uL volume of 0.944% MHA was added to each well of the source plate and mixed, and 100 uL of pre-immobilization immobilizing medium (with an agar concentration of 0.850%) was withdrawn and introduced to a flowcell in accordance with the experimental design. The loaded biosensor was allowed to equilibrate for 5 minutes, and was then removed and cooled for 5 minutes to induce the agar immobilizing agent to change to solid phase. The flowcell ports were then sealed, and growth, imaging, and analysis were performed, with examination of each flowcell for growth of Paer, examination of the distal portion of each flowcell for growth of Ecol in the absence of Paer (distal sensitivity), and examination of the proximal portion of each flowcell for growth of Ecol in the presence of Paer (proximal resistance), indicative of a positive mixed species resistance due to diffusion of metallo-beta-lactamase.\n(§5) In order to test for enzyme-mediated cross-species resistance effects, a method for was devised to test a sensitive strain, Escherichia coli ATCC 25922 (Ecol), in the presence of a resistant strain, Pseudomonas aeruginosa IHMA 519749 (Paer) in the immobilized format. The method involved first immobilizing the resistant strain on the surface of a portion of each test flowcell of the cassette (approximately half) and then immobilizing the sensitive (sentinel) strain on the surface of the full flowcell including the area containing the resistant strain. This strategy provides an internal control for treatment effects on the sentinel strain in an area far from the resistant strain along with an area where close-field effects can be observed in the same flowcell. […]"}, "[3]": {"tested_on": "Escherichia coli ATCC 25922 (Ecol)", "test": "Biosensor mixed species diffusion assay (immobilized cells, microscopic detection), growth of sentinel strain", "format": "cell-based", "settings": "for Mixed species resistance factor diffusion? / Ecol growth in distal site? / Ecol growth in proximal site?: CAZ 16 (16 μg/mL); for Ecol growth in distal site?: distal from Paer; for Ecol growth in proximal site?: proximal to Paer", "description": "as §2, §3, §4, §5"}, "[4]": {"settings": "Flowcell 5, Ecol 10^6/Paer 10^6"}, "[5]": {"settings": "Flowcell 6, Ecol 10^6/Paer 10^5"}, "[6]": {"settings": "Flowcell 7, Ecol 10^5/Paer 10^6"}, "[7]": {"settings": "Flowcell 8, Ecol 10^5/Paer 10^5"}, "[8]": {"settings": "Flowcell 5, Ecol 10^6/Paer 10^6, 4 hours"}, "[9]": {"settings": "Flowcell 6, Ecol 10^6/Paer 10^5, 4 hours"}, "[10]": {"settings": "Flowcell 7, Ecol 10^5/Paer 10^6, 4 hours"}, "[11]": {"settings": "Flowcell 8, Ecol 10^5/Paer 10^5, 4 hours"}}}
{"molecule": "CC(C)(O/N=C(\\C(=O)N[C@@H]1C(=O)N2C(C(=O)[O-])=C(C[n+]3ccccc3)CS[C@H]12)c1csc(N)n1)C(=O)O", "note": "[CAZ, ceftazidime]", "values": [{"measurement": "Susceptibility of Ecol strain in plating-based tests", "setting": "E. coli 25922 (Ecol)", "value": "sensitive"}, {"measurement": "Resistance of Paer isolate in plating-based tests", "setting": "[1]", "value": "high resistance"}, {"measurement": "Zone of inhibition, Paer isolate", "setting": "[1]", "value": "no zone of inhibition observed"}, {"measurement": "Paer growth morphology and rate under antibiotic vs growth control", "setting": "[2]; CAZ at 16 μg/mL, immobilized in MHA, proximal site", "value": "same morphology and growth rate as the growth control condition"}, {"measurement": "Paer growth?", "setting": "[2]; [4]", "value": "Yes"}, {"measurement": "Paer growth?", "setting": "[2]; [5]", "value": "Yes"}, {"measurement": "Paer growth?", "setting": "[2]; [6]", "value": "Yes"}, {"measurement": "Paer growth?", "setting": "[2]; [7]", "value": "Yes"}, {"measurement": "Ecol growth and morphology under antibiotic (time-lapse images)", "setting": "[3]; CAZ at 16 μg/mL, immobilized in MHA, 4 hours", "value": "slight growth or elongation of the single cell with later fading and in many colonies complete lysis"}, {"measurement": "Mixed species resistance factor diffusion?", "setting": "[3]; [4]", "value": "No"}, {"measurement": "Ecol growth in distal site?", "setting": "[3]; [8]", "value": "No"}, {"measurement": "Ecol growth in proximal site?", "setting": "[3]; [8]", "value": "No"}, {"measurement": "Mixed species resistance factor diffusion?", "setting": "[3]; [5]", "value": "No"}, {"measurement": "Ecol growth in distal site?", "setting": "[3]; [9]", "value": "No"}, {"measurement": "Ecol growth in proximal site?", "setting": "[3]; [9]", "value": "No"}, {"measurement": "Mixed species resistance factor diffusion?", "setting": "[3]; [6]", "value": "No"}, {"measurement": "Ecol growth in distal site?", "setting": "[3]; [10]", "value": "No"}, {"measurement": "Ecol growth in proximal site?", "setting": "[3]; [10]", "value": "No"}, {"measurement": "Mixed species resistance factor diffusion?", "setting": "[3]; [7]", "value": "No"}, {"measurement": "Ecol growth in distal site?", "setting": "[3]; [11]", "value": "No"}, {"measurement": "Ecol growth in proximal site?", "setting": "[3]; [11]", "value": "No"}]}
